Measurements from ChEMBL document CHEMBL3885861, “Open TG-GATES”.

Species on record: Rattus norvegicus
Assay: Open TG-GATES - Regimen: Single
Assay type: toxicity, organism-based, Sprague-Dawley
Parameters: regimen Single, gender Male, age 6 weeks
Details: in vivo, po, 50 mg/kg, route gavage, dose level Middle; for APTT / Bas / Eos / Fbg / Hb / Ht / Lym / MCHC / MCV / Mono / Neu / PT / Plat / RBC / Ret / WBC: tissue Blood; for KIDNEY_L / KIDNEY_R / KIDNEY_TOTAL: tissue Kidney; for LIVER: tissue Liver; for ALP / ALT / AST / BUN / CRE / Ca / Cl / DBIL / GLC / IP / K / LDH / Na / PL / RALB / TBIL / TC / TG / TP / gamma-GTP: tissue Plasma

In the case of `C1CCC(C(CC2CCCCN2)C2CCCCC2)CC1` (configuration not stated) [PERHEXILINE], the TERMINAL_BW (3 h) is reported as 207.9 g, the APTT (3 h) is reported as 22 s and the Bas (3 h) is reported as 0%. For the same compound, the Eos (3 h) was 0.8%, the Fbg (3 h) was 319.8 mg/dL and the Hb (3 h) was 13.6 g/dL. For the same compound, the Ht (3 h) was 40.9%, the Lym (3 h) was 77.6% and the MCHC (3 h) was 33.3%. It also gave an MCV (3 h) of 62.5 fL, a Mono (3 h) of 1.8% and a Neu (3 h) of 19%. It also gave a PT (3 h) of 15.7 s, a Plat (3 h) of 132.9 x10_4/uL and an RBC (3 h) of 656 x10_4/ul. The Ret (3 h) was 6.5%, the WBC (3 h) was 52.6 x10_2/uL and the KIDNEY_L (3 h) was 1 g. The KIDNEY_R (3 h) was 1 g, the KIDNEY_TOTAL (3 h) was 2 g and the LIVER (3 h) was 9.4 g. It also gave an ALP (3 h) of 1767.8 IU/L, an ALT (3 h) of 47.4 IU/L and an AST (3 h) of 72 IU/L. The BUN (3 h) was 10.8 mg/dL, the CRE (3 h) was 0.1 mg/dL and the Ca (3 h) was 10.8 mg/dL. For the same compound, the Cl (3 h) was 105 meq/L, the DBIL (3 h) was 0.004 mg/dL and the GLC (3 h) was 164.6 mg/dL. For the same compound, the IP (3 h) was 9.2 mg/dL, the K (3 h) was 4 meq/L and the LDH (3 h) was 190.6 IU/L. For the same compound, the Na (3 h) was 140.4 meq/L, the PL (3 h) was 140.2 mg/dL and the RALB (3 h) was 3.1 g/dL. The TBIL (3 h) was 0.012 mg/dL, the TC (3 h) was 73 mg/dL and the TG (3 h) was 65.8 mg/dL. It also gave a TP (3 h) of 5.7 g/dL, a gamma-GTP (3 h) of 0.8 IU/L and a TERMINAL_BW (6 h) of 216.9 g. For the same compound, the APTT (6 h) was 21.5 s, the Bas (6 h) was 0% and the Eos (6 h) was 1%. The Fbg (6 h) was 325.6 mg/dL, the Hb (6 h) was 13 g/dL and the Ht (6 h) was 38.7%. For the same compound, the Lym (6 h) was 72.8%, the MCHC (6 h) was 33.5% and the MCV (6 h) was 62.6 fL. It also gave a Mono (6 h) of 2.8%, a Neu (6 h) of 22.2% and a PT (6 h) of 15.7 s. The Plat (6 h) was 126.8 x10_4/uL, the RBC (6 h) was 619.8 x10_4/ul and the Ret (6 h) was 7.7%. It also gave a WBC (6 h) of 94.8 x10_2/uL, a KIDNEY_L (6 h) of 1.1 g and a KIDNEY_R (6 h) of 1 g. For the same compound, the KIDNEY_TOTAL (6 h) was 2.1 g, the LIVER (6 h) was 9.5 g and the ALP (6 h) was 1607.2 IU/L. The ALT (6 h) was 40.4 IU/L, the AST (6 h) was 69.8 IU/L and the BUN (6 h) was 11.4 mg/dL. For the same compound, the CRE (6 h) was 0.2 mg/dL, the Ca (6 h) was 10.9 mg/dL and the Cl (6 h) was 105.2 meq/L. For the same compound, the DBIL (6 h) was 0.006 mg/dL, the GLC (6 h) was 161 mg/dL and the IP (6 h) was 10.1 mg/dL. It also gave a K (6 h) of 4.5 meq/L, an LDH (6 h) of 182.6 IU/L and a Na (6 h) of 139 meq/L. For the same compound, the PL (6 h) was 137.8 mg/dL, the RALB (6 h) was 3 g/dL and the TBIL (6 h) was 0.014 mg/dL. For the same compound, the TC (6 h) was 69.2 mg/dL, the TG (6 h) was 81.6 mg/dL and the TP (6 h) was 5.6 g/dL. The gamma-GTP (6 h) was 1 IU/L.
